Laboratory results from US20240316051A1, “A PHARMACEUTICAL COMBINATION AND USE THEREOF” (Ascentage Pharma (Suzhou) Co., Ltd., priority 2021, published 2024).

The molecules below were run against T1, EED (1-441)-His protein (Homo sapiens, UniProt O75530) (assay: EED-H3K27Me3 peptide competition binding assay by AlphaScreen). Settings: IC50 class, Table 4B, read-out: Alpha screen.
T1 construct: 20 nM EED (1-441)-His protein
Method in brief: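 EED(1-441)-His was preincubated 15 min with compound, then biotin-H3K27Me3(19-33) peptide added for 30 min; both were added as 20 nM solutions in 25 mM HEPES pH 8, 0.02% Tween-20, 0.5% BSA. Ni-chelate acceptor and streptavidin donor beads (10 μg/ml each final) were added for 1 h in the dark at RT. Signal read at 615 nm (680 nm excitation), normalised to controls and fitted to dose-response for IC50.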

T1 sequence (O75530 whole entry): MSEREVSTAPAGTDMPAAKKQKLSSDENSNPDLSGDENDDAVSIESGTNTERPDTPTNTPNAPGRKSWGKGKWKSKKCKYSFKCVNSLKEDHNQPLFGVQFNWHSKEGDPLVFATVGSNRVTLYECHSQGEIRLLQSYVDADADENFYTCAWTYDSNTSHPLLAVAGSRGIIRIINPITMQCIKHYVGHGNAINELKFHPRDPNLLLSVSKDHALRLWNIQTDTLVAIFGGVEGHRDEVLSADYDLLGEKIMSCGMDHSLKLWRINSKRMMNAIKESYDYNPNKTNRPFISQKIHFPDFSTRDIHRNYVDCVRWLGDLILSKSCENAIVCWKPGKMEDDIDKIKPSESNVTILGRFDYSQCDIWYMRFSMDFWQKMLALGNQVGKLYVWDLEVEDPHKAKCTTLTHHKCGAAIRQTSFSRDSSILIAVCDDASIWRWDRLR

SMILES | IC50
CC(C)c1ccc2c(n1)CN(CC(F)(F)F)C(=O)c1ncn3c(NCc4c(F)ccc5c4CCO5)ncc-2c13 [E 15, 12-(((5-fluoro-2,3-dihydrobenzofuran-4-yl)methyl)amino)-7-isopropyl-4-(2,2,2-trifluoroethyl)-4,5-dihydro-3H-2,4,6,11,12a-pentaazabenzo[4,5] cycloocta[1,2,3-cd]inden-3-one] | < 0.01 µM
CCc1ccc2c(n1)CN(CC(C)(F)F)C(=O)c1ncn3c(NCc4c(F)ccc5c4CCO5)ncc-2c13 [E 16, 4-(2,2-difluoropropyl)-7-ethyl-12-(((5-fluoro-2,3-dihydrobenzofuran-4-yl)methyl)amino)-4,5-dihydro-3H-2,4,6,11,12a-pentaazabenzo[4,5]cycloocta [1,2,3-cd]inden-3-one] | < 0.01 µM
Cc1cnc2n1Cc1ncccc1-c1cnc(NCc3c(F)ccc4c3CCO4)n3cnc-2c13 [E 17, N-((5-fluoro-2,3-dihydrobenzofuran-4-yl)methyl)-5-methyl-6H-2,3,5a,7,12,13a-hexaazabenzo[4,5] cyclopenta[7,8]cycloocta[1,2,3-cd]inden-13-amine] | < 0.01 µM
Cc1ccc2c(n1)Cn1c(C)cnc1-c1ncn3c(NCc4c(F)ccc5c4CCO5)ncc-2c13 [E 18, N-((5-fluoro-2,3-dihydrobenzofuran-4-yl)methyl)-5,8-dimethyl-6H-2,3,5a,7,12,13a-hexaazabenzo[4, 5]cyclopenta[7,8]cycloocta[1,2,3-cd]inden-13-amine] | < 0.01 µM
[2H]C([2H])(Nc1ncc2c3c(ncn13)C(=O)N(CC(F)(F)F)Cc1cc(C(=O)N(C)C)ccc1-2)c1c(F)ccc2c1CCO2 [E 24, 12-(((5-fluoro-2,3-dihydrobenzofuran-4-yl)methyl-d2)amino)-N,N-dimethyl-3-oxo-4-(2,2,2-trifluoroethyl)-4,5-dihydro-3H-2,4,11,12a-tetraazabenzo[4, 5]cycloocta[1,2,3-cd]indene-7-carboxamide] | 0.01 to 0.1 µM
O=C1NCCc2ccccc2-c2cnc(NCc3c(F)ccc4c3CCO4)n3cnc1c23 [E 28, 13-(((5-fluoro-2,3-dihydrobenzofuran-4-yl)methyl)amino)-5,6-dihydro-2,4, 12, 13a-tetraazabenzo[4,5] cyclonona[1,2,3-cd]inden-3(4H)-one] | 0.01 to 0.1 µM
Cc1ccc2c(n1)CCNC(=O)c1ncn3c(NCc4c(F)ccc5c4CCO5)ncc-2c13 [E 29, 13-(((5-fluoro-2,3-dihydrobenzofuran-4-yl)methyl)amino)-8-methyl-5,6-dihydro-2,4,7,12,13a-pentaazabenzo[4,5]cyclonona[1,2,3-cd]inden-3(4H)-one] | 0.01 to 0.1 µM
Cc1ccc2c(n1)CCN(CC(F)(F)F)C(=O)c1ncn3c(NCc4c(F)ccc5c4CCO5)ncc-2c13 [E 30, 13-(((5-fluoro-2,3-dihydrobenzofuran-4-yl)methyl)amino)-8-methyl-4-(2,2,2-trifluoroethyl)-5,6-dihydro-2,4,7,12,13a-pentaazabenzo[4,5] cyclonona[1,2,3-cd]inden-3(4H)-one] | 0.01 to 0.1 µM
CC(C)N1CCc2cc(C(F)(F)F)ncc2-c2cnc(NCc3c(F)ccc4c3CCO4)n3cnc(c23)C1=O [E 31, 13-(((5-fluoro-2,3-dihydrobenzofuran-4-yl)methyl)amino)-4-isopropyl-8-(trifluoromethyl)-5,6-dihydro-2,4,9,12,13a-pentaazabenzo[4,5]cyclonona[1,2,3-cd]inden-3(4H)-one] | 0.01 to 0.1 µM
Fc1ccc2c(c1CNc1ncc3c4c(ncn14)-c1nccn1Cc1nc(C(F)(F)F)ccc1-3)CCO2 [E 32, N-((5-fluoro-2,3-dihydrobenzofuran-4-yl)methyl)-8-(trifluoromethyl)-6H-2,3,5a,7,12,13a-hexaaza-benzo[4,5]cyclopenta[7,8]cycloocta[1,2,3-cd]inden-13-amine] | 0.01 to 0.1 µM
Fc1ccc2c(c1CNc1ncc3c4c(ncn14)-c1nccn1Cc1cc(C(F)(F)F)ncc1-3)CCO2 [E 33, N-((5-fluoro-2,3-dihydrobenzofuran-4-yl)methyl)-8-(trifluoromethyl)-6H-2,3,5a,9,12,13a-hexaaza-benzo[4,5]cyclopenta[7,8]cycloocta[1,2,3-cd]inden-13-amine] | 0.01 to 0.1 µM
Cc1ccc2c(n1)Cn1ccnc1-c1ncn3c(NCc4c(F)ccc5c4CCO5)ncc-2c13 [E 34, N-((5-fluoro-2,3-dihydrobenzofuran-4-yl)methyl)-8-methyl-6H-2,3,5a,7,12,13a-hexaazabenzo[4,5] cyclopenta[7,8]cycloocta[1,2,3-cd]inden-13-amine] | 0.01 to 0.1 µM
Cc1onc2c1Cc1cc(C(F)(F)F)ncc1-c1cnc(NCc3c(F)ccc4c3CCO4)n3cnc-2c13 [E 35, N-((5-fluoro-2,3-dihydrobenzofuran-4-yl)methyl)-5-methyl-8-(trifluoromethyl)-6H-4-oxa-2,3,9,12, 13a-pentaazabenzo[4,5]cyclopenta[7,8]cycloocta [1,2,3-cd]inden-13-amine] | 0.01 to 0.1 µM
Cc1ccc2c(n1)Cc1conc1-c1ncn3c(NCc4c(F)ccc5c4CCO5)ncc-2c13 [E 36, N-((5-fluoro-2,3-dihydrobenzofuran-4-yl)methyl)-8-methyl-6H-4-oxa-2,3,7,12,13a-pentaazabenzo [4,5]cyclopenta[7,8]cycloocta[1,2,3-cd]inden-13-amine] | 0.01 to 0.1 µM
CCc1cnc2n1Cc1cc(C(F)(F)F)ncc1-c1cnc(NCc3c(F)ccc4c3CCO4)n3cnc-2c13 [E 37, 5-ethyl-N-((5-fluoro-2,3-dihydrobenzofuran-4-yl)methyl)-8-(trifluoromethyl)-6H-2,3,5a,9,12,13a-hexaazabenzo[4,5]cyclopenta[7,8]cycloocta[1,2,3-cd]inden-13-amine] | 0.01 to 0.1 µM
CCc1cnc2n1Cc1nc(C)ccc1-c1cnc(NCc3c(F)ccc4c3CCO4)n3cnc-2c13 [E 38, 5-ethyl-N-((5-fluoro-2,3-dihydrobenzofuran-4-yl)methyl)-8-methyl-6H-2,3,5a,7,12,13a-hexaazabenzo [4,5]cyclopenta[7,8]cycloocta[1,2,3-cd]inden-1 3-amine] | 0.01 to 0.1 µM
Cc1ccc2c(n1)CN(CC(F)(F)F)C(=O)c1ncn3c(NCc4c(F)ccc5c4CCCO5)ncc-2c13 [E 39, 12-(((6-fluorochroman-5-yl)methyl)amino)-7-methyl-4-(2,2,2-trifluoroethyl)-4,5-dihydro-3H-2,4,6, 11,12a-pentaazabenzo[4,5]cycloocta[1,2,3-cd] inden-3-one] | 0.01 to 0.1 µM
O=C1c2ncn3c(NCc4c(F)ccc5c4CCO5)ncc(c23)-c2ccc(C3CCOCC3)nc2CN1CC(F)(F)F [E 45, 12-(((5-fluoro-2,3-dihydrobenzofuran-4-yl)methyl)amino)-7-(tetrahydro-2H-pyran-4-yl)-4-(2,2,2-trifluoroethyl)-4,5-dihydro-3H-2,4,6,11,12a-pentaazabenzo[4,5]cycloocta[1,2,3-cd]inden-3-one] | < 0.01 µM
CC(C)(C)c1cc2c(cn1)-c1cnc(NCc3c(F)ccc4c3CCO4)n3cnc(c13)C(=O)N(CC(F)(F)F)C2 [E 46, 7-(tert-butyl)-12-(((5-fluoro-2,3-dihydrobenzofuran-4-yl)methyl)amino)-4-(2,2,2-trifluoroethyl)-4,5-dihydro-3H-2,4,8,11,12a-pentaazabenzo[4,5]cyclo octa[1,2,3-cd]inden-3-one] | < 0.01 µM
CC(C)c1ccc2c(n1)CN(CC(F)F)C(=O)c1ncn3c(NCc4c(F)ccc5c4CCO5)ncc-2c13 [E 47, 4-(2,2-difluoroethyl)-12-(((5-fluoro-2,3-dihydrobenzofuran-4-yl)methyl)amino)-7-isopropyl-4,5-dihydro-3H-2,4,6,11,12a-pentaazabenzo[4,5]cycloocta[1,2,3-cd]inden-3-one] | < 0.01 µM
O=C1c2ncn3c(NCc4c(F)ccc5c4CCO5)ncc(c23)-c2ccc(C3COCCO3)nc2CN1CC(F)(F)F (stereo not drawn) [E 48, 7-(1,4-dioxan-2-yl)-12-(((5-fluoro-2,3-dihydrobenzo-furan-4-yl)methyl)amino)-4-(2,2,2-trifluoroethyl)-4,5-dihydro-3H-2,4,6, 11,12a-pentaazabenzo[4,5] cycloocta[1,2,3-cd]inden-3-one] | < 0.01 µM
O=C1c2ncn3c(NCc4c(F)ccc5c4CCO5)ncc(c23)-c2ccc(CC3COCCO3)nc2CN1CC(F)(F)F (stereo not drawn) [E 49, 7-((1,4-dioxan-2-yl)methyl)-12-(((5-fluoro-2,3-dihydrobenzofuran-4-yl)methyl)amino)-4-(2,2,2-trifluoroethyl)-4,5-dihydro-3H-2,4,6,11,12a-pentaazabenzo[4,5]cycloocta[1,2,3-cd] inden-3-one] | < 0.01 µM
CC(C)(C)c1ccc2c(n1)CN(CC(F)(F)F)C(=O)c1ncn3c(NCc4c(F)ccc5c4CCO5)ncc-2c13 [E 50, 7-(tert-butyl)-12-(((5-fluoro-2,3-dihydrobenzofuran-4-yl)methyl)amino)-4-(2,2,2-trifluoroethyl)-4,5-dihydro-3H-2,4,6,11,12a-pentaazabenzo[4,5] cycloocta[1,2,3-cd]inden-3-one] | < 0.01 µM
O=C1c2ncn3c(NCc4c(F)ccc5c4CCO5)ncc(c23)-c2ccc(C3CCC3)nc2CN1CC(F)(F)F [E 52, 7-cyclobutyl-12-(((5-fluoro-2,3-dihydrobenzofuran-4-yl)methyl)amino)-4-(2,2,2-trifluoroethyl)-4,5-dihydro-3H-2,4,6,11,12a-pentaazabenzo[4,5] cycloocta[1,2,3-cd]inden-3-one] | < 0.01 µM
